The supplement of paper PMC11451515

Test system: SEM cells
Assay: cell viability relative to DMSO control; higher = less cytotoxic
Details: 48 h
Method in brief: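 Leukemia cells (NOMO1 or SEM, 500 cells/well; P12-Ichikawa, 1000 cells/well) were seeded in 5 μl in 1536-well plates after at least four passages of adaptation to each medium. They received library compounds in DMSO by pin dosing, 11 threefold points from 47 μM to 0.79 nM. Luminescence with CellTiter-Glo One was read after 48 h at 37°C. Viability is stated per plate relative to DMSO wells, with cell-free wells as background.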

[1] = HPLM + 10% dialyzed FBS, 0.000781 µM
[2] = HPLM + 10% dialyzed FBS, 0.00234 µM
[3] = HPLM + 10% dialyzed FBS, 0.00702 µM
[4] = HPLM + 10% dialyzed FBS, 0.0211 µM
[5] = HPLM + 10% dialyzed FBS, 0.0632 µM
[6] = HPLM + 10% dialyzed FBS, 0.19 µM
[7] = HPLM + 10% dialyzed FBS, 0.569 µM
[8] = HPLM + 10% dialyzed FBS, 1.71 µM
[9] = HPLM + 10% dialyzed FBS, 5.12 µM
[10] = HPLM + 10% dialyzed FBS, 15.4 µM
[11] = HPLM + 10% dialyzed FBS, 46.1 µM
[12] = RPMI 5 mM glucose + 10% FBS, 0.000781 µM
[13] = RPMI 5 mM glucose + 10% FBS, 0.00234 µM
[14] = RPMI 5 mM glucose + 10% FBS, 0.00702 µM
[15] = RPMI 5 mM glucose + 10% FBS, 0.0211 µM
[16] = RPMI 5 mM glucose + 10% FBS, 0.0632 µM
[17] = RPMI 5 mM glucose + 10% FBS, 0.19 µM
[18] = RPMI 5 mM glucose + 10% FBS, 0.569 µM
[19] = RPMI 5 mM glucose + 10% FBS, 1.71 µM
[20] = RPMI 5 mM glucose + 10% FBS, 5.12 µM
[21] = RPMI 5 mM glucose + 10% FBS, 15.4 µM
[22] = RPMI 5 mM glucose + 10% FBS, 46.1 µM
[23] = RPMI 5 mM glucose + 10% dialyzed FBS, 0.000781 µM
[24] = RPMI 5 mM glucose + 10% dialyzed FBS, 0.00234 µM
[25] = RPMI 5 mM glucose + 10% dialyzed FBS, 0.00702 µM
[26] = RPMI 5 mM glucose + 10% dialyzed FBS, 0.0211 µM
[27] = RPMI 5 mM glucose + 10% dialyzed FBS, 0.0632 µM
[28] = RPMI 5 mM glucose + 10% dialyzed FBS, 0.19 µM
[29] = RPMI 5 mM glucose + 10% dialyzed FBS, 0.569 µM
[30] = RPMI 5 mM glucose + 10% dialyzed FBS, 1.71 µM
[31] = RPMI 5 mM glucose + 10% dialyzed FBS, 5.12 µM
[32] = RPMI 5 mM glucose + 10% dialyzed FBS, 15.4 µM
[33] = RPMI 5 mM glucose + 10% dialyzed FBS, 46.1 µM

| Compound | cell viability [1] | cell viability [2] | cell viability [3] | cell viability [4] | cell viability [5] | cell viability [6] | cell viability [7] | cell viability [8] | cell viability [9] | cell viability [10] | cell viability [11] | cell viability [12] | cell viability [13] | cell viability [14] | cell viability [15] | cell viability [16] | cell viability [17] | cell viability [18] | cell viability [19] | cell viability [20] | cell viability [21] | cell viability [22] | cell viability [23] | cell viability [24] | cell viability [25] | cell viability [26] | cell viability [27] | cell viability [28] | cell viability [29] | cell viability [30] | cell viability [31] | cell viability [32] | cell viability [33] |
| --- | --- | --- | --- | --- | --- | --- | --- | --- | --- | --- | --- | --- | --- | --- | --- | --- | --- | --- | --- | --- | --- | --- | --- | --- | --- | --- | --- | --- | --- | --- | --- | --- | --- |
| CC(=O)OCC(=O)[C@@]1(O)CC[C@H]2[C@@H]3CCC/4=C/C(=O)/C=C\[C@]4(C)[C@H]3[C@@H](O)C[C@]12C | 117% | 106% | 104% | 112% | 103% | 78.8% | 69.3% | 52.7% | 48.2% | 88% | 90.5% | 121% | 124% | 130% | 124% | 122% | 99.3% | 110% | 81.4% | 60.4% | 128% | 121% | – | – | – | – | – | – | – | – | – | – | – |
| CN(C)CCc1c[nH]c2ccc(Cn3cncn3)cc12 | 76.1% | 88.7% | 97.4% | 96.4% | 98% | 48.5% | 55% | 23% | 9.54% | 8.01% | 7.53% | 86% | 91% | 86.9% | 84.9% | 75.8% | 30.7% | 36.3% | 10.4% | 7.9% | 7.16% | 6.13% | 91.4% | 96.1% | 88.9% | 97.5% | 79.3% | 43.4% | 50.7% | 18.2% | 9.37% | 8.33% | 6.69% |
| COc1cccc(OC)c1-c1cc(C(=O)NC2(C(=O)O)C3CC4CC(C3)CC2C4)nn1-c1ccnc2cc(Cl)ccc12 (stereo unspecified) | 107% | 94.1% | 96.4% | 109% | 115% | 112% | 117% | 102% | 104% | 97.8% | 112% | 89.7% | 98% | 106% | 92.4% | 107% | 98.4% | 104% | 110% | 117% | 92.6% | 79.2% | 95.2% | 118% | 109% | 126% | 96.3% | 119% | 117% | 102% | 116% | 118% | 113% |
| OC1CCC(CC1)N2\C=N/C3=C(C2=N)C(=C([N]3CC4=CC=CC=C4)C5=CC=CC=C5)C6=CC=CC=C6 (stereo unspecified) | 117% | 123% | 134% | 116% | 113% | 98.9% | 46.8% | 47.2% | 38.6% | 39% | 41% | 110% | 117% | 131% | 108% | 102% | 97.6% | 47.4% | 39.4% | 37% | 37.8% | 24% | – | – | – | – | – | – | – | – | – | – | – |
| C=C1CCC2[C@](C)(CO)C(O)CC[C@]2(C)C1C/C=C1/C(=O)OCC1O (stereo partly specified) | 122% | 122% | 112% | 126% | 116% | 111% | 109% | 105% | 103% | 117% | 93.3% | 125% | 115% | 118% | 97.8% | 108% | 99.2% | 88.3% | 87.1% | 81.5% | 84.8% | 85.6% | 129% | 120% | 121% | 115% | 113% | 116% | 109% | 106% | 109% | 96.3% | 92.3% |
| CCC(=O)NC[C@H](Cc1ccc(OCCc2nc(-c3ccccc3)oc2C)cc1)N/C(C)=C\C(=O)c1ccc(C(F)(F)F)cc1 | 68.8% | 106% | 104% | 88.3% | 91% | 109% | 4.25% | 81.6% | 82.6% | 50.4% | 49.3% | 83.1% | 97.2% | 120% | 105% | 98% | 120% | 4.86% | 83.4% | 99.4% | 51.9% | 67.2% | 60.2% | 97.7% | 113% | 118% | 120% | 109% | 5.19% | 93% | 94.5% | 43.9% | 65.5% |
| Cc1cccc(-c2[nH]c(C(C)(C)C)nc2-c2ccc3nccnc3c2)n1 | 121% | 121% | 120% | 131% | 123% | 125% | 124% | 121% | 117% | 97.7% | 11.1% | 95.9% | 85.8% | 89.7% | 95.9% | 91.2% | 81.1% | 89% | 67.9% | 82% | 64.9% | 6.89% | – | – | – | – | – | – | – | – | – | – | – |
| CCN(CC)CCCC(C)Nc1ccnc2cc(Cl)ccc12 (stereo unspecified) | 108% | 113% | 116% | 121% | 122% | 128% | 116% | 117% | 134% | 127% | 102% | 102% | 117% | 119% | 104% | 109% | 111% | 100% | 129% | 118% | 106% | 94.4% | 105% | 98.6% | 103% | 103% | 99.9% | 115% | 109% | 129% | 104% | 87% | 92.4% |
